# Results taken from publication PMC9715518, “Human and rat microsomal metabolites of N-tert-butoxycarbonylmethamphetamine and its urinary metabolites in rat” (Forensic Toxicology, 2021).
# Columns and labels:
# [1] = Microsomal metabolism test, human liver microsomes; conditions: for Detection after incubation of BocMA (LC–QToF–MS): HLM incubation of BocMA; for Share of the degraded products detected as this metabolite: HLM, first 8 min
# [2] = Rat administration test, urinary excretion; conditions: for M1–D1 absolute amount in urine after hydrolysis / M1–D1 concentration in urine after hydrolysis / M1–D1 concentration in urine before hydrolysis / M1–D2 absolute amount in urine after hydrolysis / M1–D2 concentration in urine after hydrolysis / M1–D2 concentration in urine before hydrolysis / Detection in rat urine (LC–QToF–MS): BocMA 20 mg/kg i.p.; for Detection in rat urine (LC–QToF–MS): urine 0–72 h, n = 3
# [3] = Microsomal metabolism test, rat liver microsomes; conditions: for Detection after incubation of BocMA (LC–QToF–MS): RLM incubation of BocMA; for Share of the degraded products detected as this metabolite: RLM, first 3 min; for Incubation time at which peak intensity was highest: RLM test
# [4] = within 3–4 days; cited from earlier work
structure (smiles),measurement,setting,value
"CC(C(O)c1ccccc1)N(C)C(=O)OC(C)(C)C (single isomer, unassigned) [M1–D1, N-tert-butoxycarbonylephedrine]",Detection after incubation of BocMA (LC–QToF–MS),[1],produced
same,Share of the degraded products detected as this metabolite,[1],10%
same,M1–D1 absolute amount in urine after hydrolysis,"[2]; rat no. 1, urine 0–4 h",0.69 ng
same,M1–D1 concentration in urine after hydrolysis,"[2]; rat no. 1, urine 0–4 h",0.46 ng/mL
same,M1–D1 concentration in urine before hydrolysis,"[2]; rat no. 1, urine 0–4 h",0.47 ng/mL
same,M1–D1 absolute amount in urine after hydrolysis,"[2]; rat no. 1, urine 0–72 h total",57 ng
same,M1–D1 absolute amount in urine after hydrolysis,"[2]; rat no. 1, urine 4–8 h",54 ng
same,M1–D1 concentration in urine after hydrolysis,"[2]; rat no. 1, urine 4–8 h",54 ng/mL
same,M1–D1 concentration in urine before hydrolysis,"[2]; rat no. 1, urine 4–8 h",0.51 ng/mL
same,M1–D1 absolute amount in urine after hydrolysis,"[2]; rat no. 2, urine 0–4 h",10 ng
same,M1–D1 concentration in urine after hydrolysis,"[2]; rat no. 2, urine 0–4 h",5.2 ng/mL
same,M1–D1 concentration in urine before hydrolysis,"[2]; rat no. 2, urine 0–4 h",6.5 ng/mL
same,M1–D1 absolute amount in urine after hydrolysis,"[2]; rat no. 2, urine 0–72 h total",260 ng
same,M1–D1 absolute amount in urine after hydrolysis,"[2]; rat no. 2, urine 4–8 h",180 ng
same,M1–D1 concentration in urine after hydrolysis,"[2]; rat no. 2, urine 4–8 h",89 ng/mL
same,M1–D1 concentration in urine before hydrolysis,"[2]; rat no. 2, urine 4–8 h",3.0 ng/mL
same,M1–D1 absolute amount in urine after hydrolysis,"[2]; rat no. 2, urine 8–24 h",72 ng
same,M1–D1 concentration in urine after hydrolysis,"[2]; rat no. 2, urine 8–24 h",4.8 ng/mL
same,M1–D1 concentration in urine before hydrolysis,"[2]; rat no. 2, urine 8–24 h",3.0 ng/mL
same,M1–D1 absolute amount in urine after hydrolysis,"[2]; rat no. 3, urine 0–4 h",70 ng
same,M1–D1 concentration in urine after hydrolysis,"[2]; rat no. 3, urine 0–4 h",140 ng/mL
same,M1–D1 concentration in urine before hydrolysis,"[2]; rat no. 3, urine 0–4 h",50 ng/mL
same,M1–D1 absolute amount in urine after hydrolysis,"[2]; rat no. 3, urine 0–72 h total",1500 ng
same,M1–D1 absolute amount in urine after hydrolysis,"[2]; rat no. 3, urine 4–8 h",440 ng
same,M1–D1 concentration in urine after hydrolysis,"[2]; rat no. 3, urine 4–8 h",220 ng/mL
same,M1–D1 concentration in urine before hydrolysis,"[2]; rat no. 3, urine 4–8 h",3.2 ng/mL
same,M1–D1 absolute amount in urine after hydrolysis,"[2]; rat no. 3, urine 8–24 h",860 ng
same,M1–D1 concentration in urine after hydrolysis,"[2]; rat no. 3, urine 8–24 h",86 ng/mL
same,M1–D1 absolute amount in urine after hydrolysis,"[2]; rat no. 3, urine 24–48 h",88 ng
same,M1–D1 concentration in urine after hydrolysis,"[2]; rat no. 3, urine 24–48 h",11 ng/mL
same,M1–D1 absolute amount in urine after hydrolysis,"[2]; rat no. 3, urine 48–72 h",6.4 ng
same,M1–D1 concentration in urine after hydrolysis,"[2]; rat no. 3, urine 48–72 h",0.71 ng/mL
same,Detection after incubation of BocMA (LC–QToF–MS),[3],detected
same,Share of the degraded products detected as this metabolite,[3],5%
"CC(C(O)c1ccccc1)N(C)C(=O)OC(C)(C)C (single isomer, unassigned) [M1–D2, N-tert-butoxycarbonylpseudoephedrine]",Detection after incubation of BocMA (LC–QToF–MS),[1],produced
same,Share of the degraded products detected as this metabolite,[1],4%
same,M1–D2 absolute amount in urine after hydrolysis,"[2]; average of 3 rats, urine 0–72 h total",85 ng
same,M1–D2 absolute amount in urine after hydrolysis,"[2]; rat no. 1, urine 0–4 h",7.8 ng
same,M1–D2 concentration in urine after hydrolysis,"[2]; rat no. 1, urine 0–4 h",5.2 ng/mL
same,M1–D2 concentration in urine before hydrolysis,"[2]; rat no. 1, urine 0–4 h",1.5 ng/mL
same,M1–D2 absolute amount in urine after hydrolysis,"[2]; rat no. 1, urine 0–72 h total",43 ng
same,M1–D2 absolute amount in urine after hydrolysis,"[2]; rat no. 1, urine 4–8 h",35 ng
same,M1–D2 concentration in urine after hydrolysis,"[2]; rat no. 1, urine 4–8 h",35 ng/mL
same,M1–D2 concentration in urine before hydrolysis,"[2]; rat no. 1, urine 4–8 h",0.67 ng/mL
same,M1–D2 absolute amount in urine after hydrolysis,"[2]; rat no. 2, urine 0–4 h",24 ng
same,M1–D2 concentration in urine after hydrolysis,"[2]; rat no. 2, urine 0–4 h",12 ng/mL
same,M1–D2 concentration in urine before hydrolysis,"[2]; rat no. 2, urine 0–4 h",12 ng/mL
same,M1–D2 absolute amount in urine after hydrolysis,"[2]; rat no. 2, urine 0–72 h total",52 ng
same,M1–D2 absolute amount in urine after hydrolysis,"[2]; rat no. 2, urine 4–8 h",28 ng
same,M1–D2 concentration in urine after hydrolysis,"[2]; rat no. 2, urine 4–8 h",14 ng/mL
same,M1–D2 concentration in urine before hydrolysis,"[2]; rat no. 2, urine 4–8 h",1.0 ng/mL
same,M1–D2 absolute amount in urine after hydrolysis,"[2]; rat no. 3, urine 0–4 h",50 ng
same,M1–D2 concentration in urine after hydrolysis,"[2]; rat no. 3, urine 0–4 h",100 ng/mL
same,M1–D2 concentration in urine before hydrolysis,"[2]; rat no. 3, urine 0–4 h",8.1 ng/mL
same,M1–D2 absolute amount in urine after hydrolysis,"[2]; rat no. 3, urine 0–72 h total",160 ng
same,M1–D2 absolute amount in urine after hydrolysis,"[2]; rat no. 3, urine 4–8 h",66 ng
same,M1–D2 concentration in urine after hydrolysis,"[2]; rat no. 3, urine 4–8 h",33 ng/mL
same,M1–D2 concentration in urine before hydrolysis,"[2]; rat no. 3, urine 4–8 h",1.5 ng/mL
same,M1–D2 absolute amount in urine after hydrolysis,"[2]; rat no. 3, urine 8–24 h",42 ng
same,M1–D2 concentration in urine after hydrolysis,"[2]; rat no. 3, urine 8–24 h",4.2 ng/mL
same,Detection after incubation of BocMA (LC–QToF–MS),[3],detected
same,Share of the degraded products detected as this metabolite,[3],40%
"CC(N)Cc1ccc(O)cc1 (centres unmarked) [4OHAP, 4-hydroxy amphetamine, reference compound]",Detection after incubation of BocMA (LC–QToF–MS),[1],not detected
same,Detection in rat urine (LC–QToF–MS),[2],not detected
same,Detection after incubation of BocMA (LC–QToF–MS),[3],not detected
"CNC(C)Cc1ccc(O)cc1 (centres unmarked) [4OHMA, 4-hydroxy methamphetamine, reference compound]",Detection after incubation of BocMA (LC–QToF–MS),[1],not detected
same,Detection in rat urine (LC–QToF–MS),[2],not detected
same,Detection after incubation of BocMA (LC–QToF–MS),[3],not detected
"CC(N)Cc1ccccc1 (centres unmarked) [AP, amphetamine]",Detection in rat urine (LC–QToF–MS),[2],not detected
same,Detection after incubation of BocMA (LC–QToF–MS),[3],not detected
CC(NC(=O)OC(C)(C)C)C(O)c1ccccc1 (centres unmarked) [Boc-protected nor-ephedrine],Detection after incubation of BocMA (LC–QToF–MS),[1],not detected
same,Detection after incubation of BocMA (LC–QToF–MS),[3],not detected
"CC(C(=O)c1ccccc1)N(C)C(=O)OC(C)(C)C (centres unmarked) [BocMC, N-tert-butoxycarbonyl-2-(methylamino)-1-phenylpropan-1-one, reference compound]",Detection after incubation of BocMA (LC–QToF–MS),[1],not detected
same,Detection after incubation of BocMA (LC–QToF–MS),[3],not detected
CC(C(O)c1ccccc1)N(C)C(=O)OC(C)(C)C (centres unmarked) [M1],Share of the degraded products detected as this metabolite,[1],14%
same,M1 diastereomer ratio (R = M1–D1/M1–D2),"[2]; in vivo, rat urine",≥ 1
same,Detection in rat urine (LC–QToF–MS),[2],detected in urine from all rats
same,Incubation time at which peak intensity was highest,[3],3 min
same,Share of the degraded products detected as this metabolite,[3],45%
same,Share of the degraded products detected as this metabolite,"[3]; listed as M1 (D1, 2)",~45%
"CC(Cc1ccccc1)NC(=O)OC(C)(C)C (centres unmarked) [M2, N-tert-butoxycarbonylamphetamine]",Detection after incubation of BocMA (LC–QToF–MS),[1],produced
same,Detection in rat urine (LC–QToF–MS),[2],not detected
"C[C@@H](Cc1ccc(O)cc1)N(C)C(=O)OC(C)(C)C [M3, N-tert-butoxycarbonyl-4-hydroxymethamphetamine]",Detection after incubation of BocMA (LC–QToF–MS),[1],produced
same,Detection in rat urine (LC–QToF–MS),[2],trace amount of M3 was detected only in the urine collected during 0–4 h from Rat No. 3
"CC(NC(=O)OC(C)(C)C)C(=O)c1ccccc1 (centres unmarked) [M4, N-tert-butoxycarbonyl-2-amino-1-phenylpropan-1-one]",Detection after incubation of BocMA (LC–QToF–MS),[1],produced
same,Detection in rat urine (LC–QToF–MS),[2],not detected
same,Detection after incubation of BocMA (LC–QToF–MS),[3],detected
same,Incubation time at which peak intensity was highest,[3],20 min
C[C@H](NC(=O)OC(C)(C)CO)C(=O)c1ccccc1 [M5],Detection after incubation of BocMA (LC–QToF–MS),[1],produced
same,Urine collection interval with the highest ion peak intensity,[2]; rat urine,4 to 8 h
same,Increase of peak intensity after hydrolysis,"[2]; rat urine, β-glucuronidase hydrolysis",approximately tenfold
same,Detection in rat urine (LC–QToF–MS),[2],detected in urine from all rats
same,Detection after incubation of BocMA (LC–QToF–MS),[3],detected
same,Incubation time at which peak intensity was highest,[3],60 min
CC1N(C)C(O)(OC(C)(C)C)OC1(O)c1ccccc1 (centres unmarked) [M6],Detection after incubation of BocMA (LC–QToF–MS),[1],produced
same,Detection in rat urine (LC–QToF–MS),[2],not detected
same,Detection after incubation of BocMA (LC–QToF–MS),[3],detected
same,Incubation time at which peak intensity was highest,[3],13 min
CC(NC(=O)OC(C)(C)COC1OC(C(=O)O)C(O)C(O)C1O)C(=O)c1ccccc1 (centres unmarked) [M9],Urine collection interval with the highest ion peak intensity,[2]; rat urine,4 to 8 h
same,Detection in rat urine (LC–QToF–MS),[2],detected in all rat urine collected until 72 h
"CN[C@@H](C)Cc1ccccc1 [MA, Methamphetamine]",Detection after incubation of BocMA (LC–QToF–MS),[1],not detected
same,Share of the administered amount excreted in urine,[4],about 80%
same,Detection in rat urine (LC–QToF–MS),[2],not detected
same,Detection after incubation of BocMA (LC–QToF–MS),[3],not detected
